Experimental data from EP1769677B1, “METHOD OF IDENTIFYING THERAPEUTIC COMPOUNDS WHICH CAN BE USED FOR THE TREATMENT AND/OR PREVENTION OF INFECTIONS AND DISEASES CAUSED BY HUMAN HERPESVIRUSES” (Universidad Aut Noma de Madrid, priority 2004, dated 2005).

Assays:
[1] = in vivo; cited from earlier work
[2] = system: human herpesviruses; assay: Survival with acyclovir given ad libitum in the drink (vertical transmission model); format: in vivo, mice; conditions: acyclovir ad libitum in drinking water, high dose (as printed, final daily dose 1.50 mg), from the day of the vaginal plug
Procedure: Assuming that a mouse drinks about 3 ml a day, 2 working dilutions ([…] so that the final daily dose was 0.75 mg, and […] so that the final daily dose was 1.50 mg) were used.

[3] = system: herpes simplex virus type 1 (HSV-1) of the KOS strain; assay: Neonate mortality after acyclovir treatment of HSV-1 infected mothers (vertical mother-progeny transmission model); format: in vivo, mice; conditions: neonates of HSV-1 infected mothers, 0.25 mg per dose three times a day, from five days before crossbreeding until birth
Procedure: (§1) All the animals included in the experimental process were 14-week old female mice of the C57Bl/6 lineage. Between two and three adult mice were used per analysis group and between 13 and 25 neonates, depending on the availability of animals. The experiments were performed strictly following the Guidance on the Operation of Animals (Scientific Procedures, Act 1986), supervised by personnel of the Animal house of the Centro de Biologia Molecular Severo Ochoa. All the animals went through a quarantine period and were treated with strict precautions against contamination during inoculation and dissection. The animals were intraperitoneally infected with a dose 10^6 pfu of herpes simplex virus type 1 (HSV-1) of the KOS strain (provided by el Dr. L. Carrasco, Centro de Biologia Molecular Severo Ochoa, Universidad Autónoma of Madrid). […] The first group of mice was not given any treatment. […] Therefore the antiviral concentration administered per dose and mouse was 0.25 mg (10 mg/kg per mouse, far from the toxicity limit of 80 mg/kg cited above), with a total daily dose of 0.75 mg/day.
After birth and sacrifice, the progeny survival rates and the mother and neonate viral loads were analyzed. The adult animals remained asymptomatic during the entire experimental process, suffering no mortality.

[4] = system: herpes simplex virus type 1 (HSV-1) of the KOS strain; assay: Viral load in organs of mothers and progeny by quantitative PCR after acyclovir treatment of infected mothers; format: in vivo, mice
Procedure: as §1, with “The experiments were performed strictly following the Guidance on the Operation of Animals (Scientific Procedures, Act 1986), supervised by personnel of the Animal house of the Centro de Biologia Molecular Severo Ochoa.” left out
The dissected organs in the adult animals were the following: blood, ovaries, adrenal gland, spinal cord, brain, cerebellum and trigeminal ganglia. The entire brain was separated into three rough regions: midbrain, ventricles and cerebral cortex. In the neonates, the dissected organs were blood, spinal cord and encephalon. DNA was extracted using conventional methods (NucleoSpin®, Cat. K3053-2, ClonTech, USA). The viral load of the different organs was analyzed by means of quantitative PCR. […] Primers specific for the sequence of the viral polymerase (pol) gene were used to detect the virus (SEQ. ID. NO: 3 and SEQ. ID. NO: 4) (120 bp amplicon). The PCR conditions were one cycle of 95°C for 10 minutes, followed by 45 cycles at 95°C for 30 seconds, 55°C (for β-actin) or 60°C (for viral polymerase) for 30 seconds, and a last cycle of 72°C for 40 seconds. The virus concentration range used for optimizing the quantitative PCR standard curve was expressed as plaque forming units (pfu). For calibrating the β-actin gene, nanograms were used as the unit of this endogenous gene. The identity of the amplified products was checked by analysis of the denaturation curves, by gel electrophoresis and restriction analysis.

[5] = oral acyclovir, daily dose 0.75 mg

**Q.** With Nc1nc2c(ncn2COCCO)c(=O)[nH]1 [acyclovir] as the compound, how does the toxicity limit [1] read?
**A.** 80 mg/kg

**Q.** And the “survival of the animals” value [2]?
**A.** higher

**Q.** What about the mortality ([3]; oral acyclovir to mothers, none of the 17 animals) of the same compound?
**A.** no mortality was observed

**Q.** And the mortality rate ([3]; subcutaneous acyclovir to mothers, 1 out of 25)?
**A.** 4.0%

**Q.** And the “viral loads both in the mothers and in the progeny” value ([4]; acyclovir daily dose of 0.75 mg, both administration routes (oral and subcutaneous), Figure 7)?
**A.** significant reduction

**Q.** And the “viral levels in all the analyzed organs of the descendants” value ([4]; oral acyclovir to the mothers, daily dose 0.75 mg, blood, spinal cord, encephalon)?
**A.** almost complete elimination

**Q.** And the “virus levels in blood of the mothers” value [4, 5]?
**A.** virtually undetectable

**Q.** What about the “virus levels in the trigeminal ganglia of the mothers” value [4, 5] of the same compound?
**A.** virtually undetectable

**Q.** What about the “levels of the virus in the progeny's CNS” value ([4]; subcutaneous acyclovir to mothers, daily dose 0.75 mg, Figure 7B) of the same compound?
**A.** considerably lower levels of the virus

**Q.** What about the “levels of the virus in all the analyzed organs of the mother” value ([4]; subcutaneous acyclovir, daily dose 0.75 mg, Figure 7A) of the same compound?
**A.** considerably lower levels of the virus
